Laboratory results as given in patent publication US8178148B2, “Coffee drink composition” (Kao Corporation, priority 2004, dated 2012).

Tested on: spontaneously hypertensive rats (SHR)
Test: Evaluation of hypotensive effect of FH1041 with added hydroxyhydroquinone (Example 3)
Type: in vivo, rat
Settings: oral, HHQ added to FH1041 (300 mg/kg as total chlorogenic acids)
Experimental: (a) As in Example 2, 12-week-old male spontaneously hypertensive rats (SHR) was bred preliminarily.
(B) Administration Method and Amount: • Physiological saline was orally administered to a control group. An extract from raw coffee beans (“Flavor Holder FH1041”, product of T. Hasegawa Co., Ltd.) having chlorogenic acids as a main component was administered to a comparison group. The extract was prepared so that its administration amount would be 300 mg/kg in terms of the total chlorogenic acid amount. In test group 1, an administration material was prepared to permit the administration of FH1041 in an amount of 300 mg/kg in terms of a total chlorogenic acid amount and the administration of hydroxyhydroquinone in an amount of 0.03 mg/kg (0.01% relative to the total chlorogenic acid amount). In test group 2, an administration material was prepared to permit the administration of FH1041 in an amount of 300 mg/kg in terms of a total chlorogenic acid amount and the administration of hydroxyhydroquinone in an amount of 0.3 mg/kg (0.1% relative to the total chlorogenic acid amount). […]
Test method: One group consisted of three SHR. Systolic blood pressures of the caudal artery were measured prior to oral administration and 12 hours after administration and based on them, a percent change in blood pressure was calculated. […]

Oc1ccc(O)c(O)c1 [hydroxyhydroquinone]
Influence on the hypotensive effect of chlorogenic acids: disturbed
